These results are taken from patent publication US20230167118A1, “DEGRADATION OF BRUTON'S TYROSINE KINASE (BTK) BY CONJUGATION OF BTK INIDBITORS WITH E3 LIGASE LIGAND AND METHODS OF USE” (BEIGENE, LTD., priority 2020, published 2023).

One test has as its target T1, BTK (Homo sapiens, UniProt Q06187).
T1 construct: High control=Cell group with added DMSO and without compound, indicating microplate readings without BTK degradation; endogenous in cells; host or cells: TMD-8 cells
The experiment in a line: Cell Degradation: BTK degradation in TMD-8 cells, HTRF assay. In kind it is cell-based. Particulars: 6 h treatment, IC50 (DC50) of BTK degradation. Put shortly: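 BTK levels read by HTRF (665 vs 620 nm) in lysates of TMD-8 cells after 6 h compound exposure (eight doses, 6-fold steps, 0.2% DMSO). Percent degradation relative to controls; four-parameter curve fitting gave DC50, with Dmax the top degradation.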
(In general: Time-resolved FRET reads energy transfer from a long-lived donor to a nearby acceptor.)

For the next test, the system named is HEK-293 cells. The experiment in a line: HEK-293 Cytotoxicity Assay (CellTiter-Glo). Type of test: cell-based. Particulars: Homo sapiens, HEK293, 72 h incubation, CellTiter-Glo luminescence. Put shortly:
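Four-parameter fit of % inhibition gives IC50, from CellTiter-Glo luminescent viability read-out. Cells exposed for 72 h to an 8-point, 4-fold series at 0.2% DMSO.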

Molecules are shown by their SMILES.

T1 sequence (Q06187 whole entry): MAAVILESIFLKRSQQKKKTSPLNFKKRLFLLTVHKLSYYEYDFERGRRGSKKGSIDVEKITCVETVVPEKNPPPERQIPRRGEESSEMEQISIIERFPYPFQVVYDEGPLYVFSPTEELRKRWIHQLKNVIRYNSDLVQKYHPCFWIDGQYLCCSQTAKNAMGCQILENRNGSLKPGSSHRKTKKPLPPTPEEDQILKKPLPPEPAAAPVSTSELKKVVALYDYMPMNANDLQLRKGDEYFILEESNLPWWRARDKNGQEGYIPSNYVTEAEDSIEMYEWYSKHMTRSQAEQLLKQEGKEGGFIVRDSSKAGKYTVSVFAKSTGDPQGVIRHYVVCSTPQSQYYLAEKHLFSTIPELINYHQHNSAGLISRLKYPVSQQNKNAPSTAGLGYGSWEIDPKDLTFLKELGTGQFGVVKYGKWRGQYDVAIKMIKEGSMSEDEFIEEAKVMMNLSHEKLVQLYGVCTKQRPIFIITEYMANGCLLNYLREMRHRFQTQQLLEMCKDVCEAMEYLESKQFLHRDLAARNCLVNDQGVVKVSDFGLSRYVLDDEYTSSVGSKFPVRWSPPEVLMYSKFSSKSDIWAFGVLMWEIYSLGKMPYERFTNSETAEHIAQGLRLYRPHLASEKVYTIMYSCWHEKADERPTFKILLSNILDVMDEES

Consider `Cc1cc(-c2ncnc3[nH]c(-c4cccc(N5CCN(CC6CCN(c7ccc(N8CCC(=O)NC8=O)cc7)CC6)CC5)c4)cc23)ccc1[C@@H](C)NC(=O)c1nc(C(C)(C)C)no1` [Example 116, (R)-3-(tert-butyl)-N-(1-(4-(6-(3-(4-((1-(4-(2,4-dioxotetrahydropyrimidin-1(2H)-yl)phenyl)piperidin-4-yl)methyl)piperazin-1-yl)phenyl)-7H-pyrrolo[2,3-d]pyrimidin-4-yl)-2-methylphenyl)ethyl)-1,2,4-oxadiazole-5-carboxamide], for which half-maximal degradation at BTK (DC50) was put at 2.28 nM. In the test on HEK-293 cells, the IC50 (commonly the point on the concentration scale where inhibition reaches its midpoint) was > 10000 nM.

Regarding `Cc1cc(-c2ncnc3[nH]c(-c4ccc(C5CCN(CCC6CCN(c7ccc(N8CCC(=O)NC8=O)c(F)c7)CC6)CC5)cc4)cc23)ccc1CNC(=O)c1nc(C(C)(C)C)no1` [Example 15, 3-(tert-butyl)-N-(4-(6-(4-(1-(2-(1-(4-(2,4-dioxotetrahydropyrimidin-1(2H)-yl)-3-fluorophenyl)piperidin-4-yl)ethyl)piperidin-4-yl)phenyl)-7H-pyrrolo[2,3-d]pyrimidin-4-yl)-2-methylbenzyl)-1,2,4-oxadiazole-5-carboxamide], the DC50 (commonly the concentration giving 50% degradation) at BTK came out at 1 nM. In the test on HEK-293 cells, this compound registered an IC50 of 1230 nM.

In the case of `Cc1cc(-c2ncnc3[nH]c(-c4ccc(N5CCN([C@H]6C[C@@H](c7ccc(N[C@H]8CCC(=O)NC8=O)cc7)C6)CC5)nc4)cc23)ccc1[C@@H](C)NC(=O)c1nc(C(C)(C)C)no1` [Example 188, 3-(tert-butyl)-N-((R)-1-(4-(6-(6-(4-((1R,3s)-3-(4-(((S)-2,6-dioxopiperidin-3-yl)amino)phenyl)cyclobutyl)piperazin-1-yl)pyridin-3-yl)-7H-pyrrolo[2,3-d]pyrimidin-4-yl)-2-methylphenyl)ethyl)-1,2,4-oxadiazole-5-carboxamide], at BTK, half-maximal degradation (DC50) was put at 3.03 nM. The IC50 in the test on HEK-293 cells is > 10000 nM.

On BTK, `Cc1cc(-c2ncnc3[nH]c(-c4c(C)nn(C5CCN(CC6CCN(c7ccc(N8CCC(=O)NC8=O)cc7)CC6)CC5)c4C)cc23)ccc1[C@@H](C)NC(=O)c1noc(C(C)(C)C)n1` [Example 62, (R)-5-(tert-butyl)-N-(1-(4-(6-(1-(1-((1-(4-(2,4-dioxotetrahydropyrimidin-1(2H)-yl)phenyl)piperidin-4-yl)methyl)piperidin-4-yl)-3,5-dimethyl-1H-pyrazol-4-yl)-7H-pyrrolo[2,3-d]pyrimidin-4-yl)-2-methylphenyl)ethyl)-1,2,4-oxadiazole-3-carboxamide] gave a DC50 of 0.53 nM. Further, in the test with HEK-293 cells, the IC50 was > 10000 nM.

In turn, `C[C@@H](NC(=O)c1nc(C(C)(C)C)no1)c1ccc(-c2ncnc3[nH]c(-c4ccc(N5CCN(CC6CCN(c7ccc(N8CCC(=O)NC8=O)cc7)CC6)CC5)cc4)cc23)cc1F` [Example 21, (R)-3-(tert-butyl)-N-(1-(4-(6-(4-(4-((1-(4-(2,4-dioxotetrahydropyrimidin-1(2H)-yl)phenyl)piperidin-4-yl)methyl)piperazin-1-yl)phenyl)-7H-pyrrolo[2,3-d]pyrimidin-4-yl)-2-fluorophenyl)ethyl)-1,2,4-oxadiazole-5-carboxamide] yielded a DC50 at BTK of 1.7 nM. The IC50 in the test with HEK-293 cells is > 10000 nM.

The compound `Cc1c(-c2ncnc3[nH]c(-c4ccc(N5CCN(CC6CCN(c7ccc(N8CCC(=O)NC8=O)cc7)CC6)CC5)nc4)cc23)cccc1N1CCn2c(cc3c2CC(C)(C)C3)C1=O` [Example 10, 1-(4-(4-((4-(5-(4-(3-(7,7-dimethyl-1-oxo-1,3,4,6,7,8-hexahydro-2H-cyclopenta[4,5]pyrrolo[1,2-a]pyrazin-2-yl)-2-methylphenyl)-7H-pyrrolo[2,3-d]pyrimidin-6-yl)pyridin-2-yl)piperazin-1-yl)methyl)piperidin-1-yl)phenyl)dihydropyrimidine-2,4(1H,3H)-dione] had a DC50 on BTK of 3.4 nM. In addition, the IC50 in the test with HEK-293 cells is > 10000 nM.

Consider `Cc1cc(-c2ncnc3[nH]c(-c4ccc(C5CCN(CC6CCN(c7ccc(N8CCC(=O)NC8=O)cc7)CC6)C5)nc4)cc23)ccc1[C@@H](C)NC(=O)c1nc(C(C)(C)C)no1` (stereo partly drawn) [Example 162, 3-(tert-butyl)-N-((1R)-1-(4-(6-(6-(1-((1-(4-(2,4-dioxotetrahydropyrimidin-1(2H)-yl)phenyl)piperidin-4-yl)methyl)pyrrolidin-3-yl)pyridin-3-yl)-7H-pyrrolo[2,3-d]pyrimidin-4-yl)-2-methylphenyl)ethyl)-1,2,4-oxadiazole-5-carboxamide], for which, at BTK, the 50% degradation concentration (DC50) is 1.6 nM. The IC50 with HEK-293 cells is > 10000 nM.

For the compound `CC(C)(C)c1noc(C(=O)N[C@@H]2CCc3cc(-c4ncnc5[nH]c(-c6ccc(N7CCN(CC8CCN(c9ccc(N%10CCC(=O)NC%10=O)cc9)CC8)CC7)nc6)cc45)ccc32)n1` [Example 151, (R)-3-(tert-butyl)-N-(5-(6-(6-(4-((1-(4-(2,4-dioxotetrahydropyrimidin-1(2H)-yl)phenyl)piperidin-4-yl)methyl)piperazin-1-yl)pyridin-3-yl)-7H-pyrrolo[2,3-d]pyrimidin-4-yl)-2,3-dihydro-1H-inden-1-yl)-1,2,4-oxadiazole-5-carboxamide], half-maximal degradation at BTK (DC50) was put at 3.24 nM. In addition, the IC50 in the test with HEK-293 cells is > 10000 nM.

On to `Cc1cc(-c2ncnc3[nH]c(-n4nc(C)c(C5CCN(CC6CCN(c7ccc(N8CCC(=O)NC8=O)cc7)CC6)CC5)c4C)cc23)ccc1[C@@H](C)NC(=O)c1nc(C(C)(C)C)no1` [Example 152, (R)-3-(tert-butyl)-N-(1-(4-(6-(4-(1-((1-(4-(2,4-dioxotetrahydropyrimidin-1(2H)-yl)phenyl)piperidin-4-yl)methyl)piperidin-4-yl)-3,5-dimethyl-1H-pyrazol-1-yl)-7H-pyrrolo[2,3-d]pyrimidin-4-yl)-2-methylphenyl)ethyl)-1,2,4-oxadiazole-5-carboxamide], for which the DC50 at BTK is > 2000 nM. In the test on HEK-293 cells, the IC50 came out at 2460 nM.

Turning to `Cc1cc(N2CCC(CN3CCN(c4ccc(-c5cc6c(-c7ccc([C@@H](C)NC(=O)c8nc(C(C)(C)C)no8)c(F)c7)ncnc6[nH]5)cn4)CC3)CC2)ccc1N1CCC(=O)NC1=O` [Example 52, (R)-3-(tert-butyl)-N-(1-(4-(6-(6-(4-((1-(4-(2,4-dioxotetrahydropyrimidin-1(2H)-yl)-3-methylphenyl)piperidin-4-yl)methyl)piperazin-1-yl)pyridin-3-yl)-7H-pyrrolo[2,3-d]pyrimidin-4-yl)-2-fluorophenyl)ethyl)-1,2,4-oxadiazole-5-carboxamide], at BTK, the DC50 turned out to be 1.7 nM. Moreover, in the test on HEK-293 cells, the 50% inhibitory concentration (IC50) was > 10000 nM.

The compound `Cc1cc(-c2ncnc3[nH]c(-c4c(C)nn(C5CCN(C(=O)CNCC6CCN(c7ccc(N8CCC(=O)NC8=O)cc7)CC6)CC5)c4C)cc23)ccc1[C@@H](C)NC(=O)c1nc(C(C)(C)C)no1` [Example 161, (R)-3-(tert-butyl)-N-(1-(4-(6-(1-(1-(((1-(4-(2,4-dioxotetrahydropyrimidin-1(2H)-yl)phenyl)piperidin-4-yl)methyl)glycyl)piperidin-4-yl)-3,5-dimethyl-1H-pyrazol-4-yl)-7H-pyrrolo[2,3-d]pyrimidin-4-yl)-2-methylphenyl)ethyl)-1,2,4-oxadiazole-5-carboxamide] came in with a half-maximal degradation concentration (DC50) at BTK of 0.92 nM. In addition, 3550 nM corresponded to half-maximal inhibition in the test on HEK-293 cells (IC50).
